Measurements taken from patent publication US9480259B2, “Pyrazolopyrans having herbicidal and pharmaceutical properties” (BASF SE, priority 2012, dated 2016).

Molecular target: Arabidopsis thaliana SHMT
Experiment: SHMT activity assay (ED50 SHMT), coupled with N5,N10-CH2-THF dehydrogenase, NADH at 340 nm
Type: biochemical
Settings: Table 2, Arabidopsis thaliana SHMT enzyme assay; values given as upper bounds
Procedure, shortened: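 His-tagged SHMT purified on Ni-NTA. NADH formation followed at 340 nm for 30 min; ED50 from inhibition of initial velocity.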

Row | Compound | EC50 [nM]
1 | N#CC1=C(N)Oc2[nH]ncc2C1(c1cc(C#N)cc(-c2cscn2)c1)C1CCC1 (stereo not drawn) [Compound 2.352] | < 100
2 | Cc1n[nH]c2c1C(c1cc(-c3nnn[nH]3)cc(-c3nnn[nH]3)c1)(C1CCC1)C(C#N)=C(N)O2 (stereo not drawn) [Compound 2.354] | < 10000
3 | Cc1n[nH]c2c1C(c1cc(-c3nnn[nH]3)cc(C(F)(F)F)c1)(C1CCC1)C(C#N)=C(N)O2 (stereo not drawn) [Compound 2.355] | < 10
4 | Cc1n[nH]c2c1C(c1cccc(OC(F)(F)C(F)F)c1)(C1CCC1)C(C#N)=C(N)O2 (stereo not drawn) [Compound 2.356] | < 10
5 | Cc1n[nH]c2c1C(c1cc(C#N)cc(-c3nnn[nH]3)c1)(C1CCC1)C(C#N)=C(N)O2 (stereo not drawn) [Compound 2.357] | < 100
6 | Cc1n[nH]c2c1C(c1cc(Br)cc(I)c1)(C1CCC1)C(C#N)=C(N)O2 (stereo not drawn) [Compound 2.358] | < 10
7 | Cc1n[nH]c2c1C(c1cc(Cl)cc(C#N)c1)(C1CC1)C(C#N)=C(N)O2 (stereo not drawn) [Compound 2.359] | < 10
8 | N#CC1=C(N)Oc2[nH]ncc2C1(c1cc(Cl)cc(C#N)c1)C1CC1 (stereo not drawn) [Compound 2.360] | < 100
9 | N#CC1=C(N)Oc2[nH]ncc2C1(c1cc(C#N)cc(C(F)(F)F)c1)C1CC1 (stereo not drawn) [Compound 2.361] | < 100
10 | Cc1n[nH]c2c1C(c1cc(C#N)cc(-c3ccsc3Cl)c1)(C1CCC1)C(C#N)=C(N)O2 (stereo not drawn) [Compound 2.363] | < 10
11 | Cc1n[nH]c2c1C(c1cc(C#N)cc(-c3cc(Cl)sc3Cl)c1)(C1CCC1)C(C#N)=C(N)O2 (stereo not drawn) [Compound 2.364] | < 10
12 | Cc1n[nH]c2c1C(c1cc(Br)cc(C#N)c1)(C1CC1)C(C#N)=C(N)O2 (stereo not drawn) [Compound 2.365] | < 10
13 | Cc1n[nH]c2c1C(c1cc(C#N)cc(C#N)c1)(C1CC1)C(C#N)=C(N)O2 (stereo not drawn) [Compound 2.366] | < 10
14 | Cc1n[nH]c2c1C(c1cc(C#N)cc(C(F)(F)F)c1)(C1CC=CC1)C(C#N)=C(N)O2 (stereo not drawn) [Compound 2.367] | < 10
15 | Cc1n[nH]c2c1C(c1cc(Cl)cc(C#N)c1)(C1CC=CC1)C(C#N)=C(N)O2 (stereo not drawn) [Compound 2.368] | < 10
16 | N#CC1=C(N)Oc2[nH]ncc2C1(c1cc(C#N)cc(C(=O)OCc2ccccc2)c1)C1CCC1 (stereo not drawn) [Compound 2.369] | < 10
17 | Cc1n[nH]c2c1C(c1cc(C#N)cc(C(=O)OCc3ccccc3)c1)(C1CCC1)C(C#N)=C(N)O2 (stereo not drawn) [Compound 2.370] | < 10
18 | Cc1n[nH]c2c1C(c1cc(C#N)cc(C(=O)O)c1)(C1CCC1)C(C#N)=C(N)O2 (stereo not drawn) [Compound 2.371] | < 1000

Row | Compound | EC50 [nM]
19 | N#CC1=C(N)Oc2[nH]ncc2C1(c1cc(C#N)cc(C(=O)O)c1)C1CCC1 (stereo not drawn) [Compound 2.372] | < 10000
20 | N#CC1=C(N)Oc2[nH]ncc2C1(c1cc(Br)cc(C#N)c1)C1CC=CC1 (stereo not drawn) [Compound 2.376] | < 10
21 | Cc1n[nH]c2c1C(c1cc(Br)cc(C#N)c1)(C1CC=CC1)C(C#N)=C(N)O2 (stereo not drawn) [Compound 2.377] | < 10
22 | COc1n[nH]c2c1C(c1cc(Cl)cc(Cl)c1)(C(C)C)C(C#N)=C(N)O2 (stereo not drawn) [Compound 2.378] | < 10
23 | N#CC1=C(N)Oc2[nH]ncc2C1(c1cc(Br)cc(C#N)c1)C1(F)CC1 (stereo not drawn) [Compound 2.380] | < 10
24 | Cc1n[nH]c2c1C(c1cc(Cl)cc(C(=O)OCc3ccccc3)c1)(C1CCC1)C(C#N)=C(N)O2 (stereo not drawn) [Compound 2.381] | < 10
25 | Cc1n[nH]c2c1C(c1cc(Cl)cc(C(=O)O)c1)(C1CCC1)C(C#N)=C(N)O2 (stereo not drawn) [Compound 2.382] | < 100
26 | Cc1n[nH]c2c1C(c1cc(C#N)cc(C#N)c1)(C1(F)CC1)C(C#N)=C(N)O2 (stereo not drawn) [Compound 2.383] | < 10
27 | CCOc1n[nH]c2c1C(c1cc(Cl)cc(Cl)c1)(C(C)C)C(C#N)=C(N)O2 (stereo not drawn) [Compound 2.384] | < 10
28 | COc1n[nH]c2c1C(c1cc(Cl)cc(Cl)c1)(C1CCC1)C(C#N)=C(N)O2 (stereo not drawn) [Compound 2.386] | < 10
29 | CCOc1n[nH]c2c1C(c1cc(Cl)cc(Cl)c1)(C1CCC1)C(C#N)=C(N)O2 (stereo not drawn) [Compound 2.387] | < 100
30 | COc1n[nH]c2c1C(c1cc(Br)cc(C#N)c1)(C1CCC1)C(C#N)=C(N)O2 (stereo not drawn) [Compound 2.388] | < 10
31 | CCOc1n[nH]c2c1C(c1cc(Br)cc(C#N)c1)(C1CCC1)C(C#N)=C(N)O2 (stereo not drawn) [Compound 2.389] | < 10
32 | COc1n[nH]c2c1C(c1cc(C#N)cc(C(F)(F)F)c1)(C1CCC1)C(C#N)=C(N)O2 (stereo not drawn) [Compound 2.390] | < 10
33 | CCOc1n[nH]c2c1C(c1cc(C#N)cc(C(F)(F)F)c1)(C1CCC1)C(C#N)=C(N)O2 (stereo not drawn) [Compound 2.391] | < 100
34 | COc1n[nH]c2c1C(c1cc(C#N)cc(C(F)(F)F)c1)(C1CC1)C(C#N)=C(N)O2 (stereo not drawn) [Compound 2.392] | < 100
35 | CCOc1n[nH]c2c1C(c1cc(C#N)cc(C(F)(F)F)c1)(C1CC1)C(C#N)=C(N)O2 (stereo not drawn) [Compound 2.393] | < 1000
36 | COc1n[nH]c2c1C(c1cc(Br)cc(C#N)c1)(C1(F)CC1)C(C#N)=C(N)O2 (stereo not drawn) [Compound 2.394] | < 100
